Assay results from publication PMC3682882 (BMC Pharmacology & Toxicology, 2013).

Tests used:
rats = conditions: cited from earlier work
mice = conditions: cited from earlier work
subjects with T2DM [1] = assay: Fasting plasma glucose change from baseline; format: in vivo, human; conditions: baseline pre-dose Day 1 to Day 2 and Day 3
Description: FPG concentrations were collected on Day -1, 1, 2 and 3. Changes in plasma glucose from baseline (Day 1) to Day 2 and 3 were calculated.

[2] = test system: healthy subjects and subjects with T2DM; design: method as in PMID 21733056, PMID 23668634; conditions: single oral doses up to 1000 mg in healthy subjects, up to 1000 mg BID for 2 weeks in T2DM; cited from earlier work
clinical = assay: clinical
Text: Subjects were randomized to receive one of two treatment sequences depicted in Table 1. […] The last dose of drug for each study period was before breakfast on day 3. […] On the evening before each treatment period, subjects were admitted and confined to the clinical site for the duration of the 3-day treatment period. Pharmacokinetic (PK), pharmacodynamic (PD; urine glucose and FPG), and safety (adverse events, vital signs, ECG, clinical laboratory parameters including lactic acid) assessments were performed at check-in and throughout the treatment periods. For each treatment period, the PK sampling occurred on Day 3.
All sample times are relative to the time of the administration of the first dose of study medication on Day 3 of each period. […] Blood samples for remogliflozin etabonate, remogliflozin and GSK279782 were collected into tubes containing potassium-oxalate/ sodium fluoride, placed on ice and centrifuged at approximately 3000 rpm for 10 minutes at approximately 4°C. The harvested plasma was frozen at -70°C until analysis for remogliflozin etabonate, remogliflozin and GSK279782 concentrations.
The concentrations of remogliflozin etabonate, remogliflozin, and GSK279782 in deproteinized plasma samples and standards were determined by high-performance liquid chromatography (HPLC) with tandem mass spectrometry (MS/MS) using isotopically labelled internal standards ([^2H7]- remogliflozin etabonate, [^2H7]- remogliflozin and [^2H7]-GSK279782 as previously described.
Plasma proteins from a […] plasma aliquot were precipitated using acetonitrile containing the internal standard (200 ng mL-1). Samples were vortex mixed then centrifuged. The resulting supernatant was transferred and mixed with […] of HFBA buffer (water containing 10 mM ammonium acetate and 0.26% (v/v) of heptofluorobutyric acid) prior to injection. HPLC was performed on a Shimadzu LC-10A HPLC system. Chromatography was performed on a MAC-MOD Ace 3 C18, 4.6 × 50 mm column at a flow rate of 1.0 mL min-1. An isocratic mobile phase elution with 82:18 (v/v) HFBA buffer : Acetonitrile was used. Samples were analysed in positive ion mode by Turbo Ionspray LC/MS/MS with a PE/Sciex API 3000. The calibration range was 20 to 5000 ng mL-1. Performance of the method was assessed during a 3 day validation study using quality control samples at 5 concentrations 20, 80, 500, 4000 and 5000 ng mL-1.
Actual elapsed time from dosing was used to estimate all individual plasma PK parameters.
• Cmax and tmax were the actual observed values.
• AUC(0–12) or AUC(0–last) was calculated by a combination of linear and logarithmic trapezoidal methods. The linear trapezoidal method was used for all incremental trapezoids arising from increasing concentrations and the logarithmic trapezoidal method was used for those arising from decreasing concentrations.

subjects with T2DM [3] = assay: Percent of filtered glucose excreted in the urine; format: in vivo, human; conditions: for percent filtered glucose excreted in urine, max / percent filtered glucose excreted in urine, mean (SD) / percent filtered glucose excreted in urine, median / percent filtered glucose excreted in urine, min: Day 2, N = 13; for percent of filtered glucose excreted in the urine, mean: combined 24 hour collection, Day 2
Description: Creatinine clearance (CLcr) was calculated on Day 2 and used to determine the percent of filtered glucose load excreted in urine. By using the urine collections on Day 2, CLcr was calculated as follows:
Clcr=totalamountofurinecreatinine0-xxhinterval/nearestassociatedserumcreatinine=urinecreatininemg/xxhours/serumcreatininemg/dL*100mL/dL/xx*60minutes/xxhours,
where urine creatinine (mg/xx hours) is the amount of […] excreted in a xx-hour period. Urine creatinine was calculated by multiplying the urine creatinine concentration by the urine volume (mL) for a 0-xxh time interval as follows:
urinecreatininemg/xxhours=urinecreatinineconcentrationmg/dL*intervalvolumemL/100mL/dL.
Percent of filtered glucose excreted in the urine was estimated for all collection intervals on Day 2 as follows:
GlucoseAmountExcreted/Clcr*PG*TimeIntervalorUrineglucosemg/dL*SerumCreatininemg/dL/urinecreatininemg/dL*PGmg/dL
where glucose amount excreted is the amount of glucose excreted during the xx-hour period, and CLcr is calculated for the xx-hour time interval. PG is the plasma glucose concentration reported closest to the midpoint of the time interval. Because only pre-dose PG was collected in this study, the pre-dose PG on Day 2 was used. Time interval is the number of minutes of urine collection for that interval.

subjects with T2DM [4] = assay: Fluid intake, urine volume and fluid balance; format: in vivo, human; conditions: Day 1, 0–24-hour interval, intake minus output
Text: Total fluid intake, urine volume, and fluid balance (intake minus output) were summarized over the 0–24-hour interval of Day 1 and Day 2 and the 0–12-hour interval of Day 3 of each treatment period.

subjects with T2DM [5] = assay: Lactic acid concentration by treatment; format: in vivo, human; conditions: during the three day treatment period
Description: (§1) For each treatment period, subjects were admitted to the clinical facility on the evening of Day -1 to undergo check-in procedures including a physical examination, 12-lead ECG, vital signs, clinical laboratory tests (chemistry, hematology and urinalysis), lactic acid measurement, fasting blood glucose measurement, alcohol screen, drugs of abuse screen and pregnancy test (if applicable). On each study day morning, a fasting blood sugar measurement was determined by glucose monitor. On Days 1 and 2, vital signs and a 12-lead ECG were recorded. Samples for clinical laboratory measure were also taken on Days 1 and 3. Subjects returned to the clinic 7–10 days following the last dosing day for a follow-up physical examination and laboratory evaluation. During the between-treatment intervals, subjects were provided with glucose monitors to measure fasting blood glucose concentrations; subjects were instructed as to how to recognize and treat symptoms of hypoglycemia. Adverse events were monitored throughout the entire study (randomization to follow-up visit). Any adverse events reported during the study were assessed by the investigator for intensity (mild, moderate, severe) and relationship to the study drug (causality). Where possible, all adverse events were followed until stabilization, resolution, or until the event was otherwise explained.

subjects with T2DM [6] = assay: Clinical safety and tolerability (adverse events, laboratory parameters, vital signs); format: in vivo, human; conditions: N = 13
Description: as §1

[7] = test system: panel of metabolic enzymes and transporters, including organic cation transporters; design: method as in earlier work; conditions: panel including organic cation transporters involved with metformin renal secretion; cited from earlier work
[8] = Statistical comparison of PK parameters with and without co-administered drug (drug-drug interaction); format: in vivo, human
Description: Safety and PD parameters were summarized using descriptive statistics. […] The PROC MIXED from SAS (Version 8.2, Cary, NC, USA) was used to fit the model. The estimates and the 90% CI were exponentiated in order to obtain the ratio of geometric means and its CI. The assumptions underlying the model were assessed by visual inspection of residual plots. […] Tmax was analysed non-parametrically using Hodges–Lehmann method.

subjects with T2DM [9] = assay: 24-hour urine glucose excretion in subjects with T2DM; format: in vivo, human
Description: Urine was collected on Days 1 to 3 of each treatment period, and urine glucose concentrations were analyzed for the following intervals: 0–4 hours, 4–8 hours, 8–12 hours and 12–24 hours. The quantity of glucose and creatinine excreted in urine was determined by multiplying the urine glucose or creatinine concentration for each time interval by the volume of urine for the corresponding collection interval. The total 24-hour quantity of glucose excreted in urine on Day 2 was calculated by adding the amounts collected during each interval. Urine glucose and creatinine amounts were summarized for each collected interval and for the total 24-hour collection period.

diabetic rodent models = conditions: several diabetic rodent models; cited from earlier work
[10] = cited from earlier work
[11] = treatment for 2 weeks, subjects with T2DM; cited from earlier work
[12] = human, in vivo, 500 mg, AUC(0–12)

| Tmax (clinical; human, in vivo) | Cmax (clinical; human, in vivo) | SMILES | changes in fasting plasma glucose concentrations from baseline (subjects with T2DM [1]) | percent filtered glucose excreted in urine, max (subjects with T2DM [3]) | percent filtered glucose excreted in urine, mean (SD) (subjects with T2DM [3]) | percent filtered glucose excreted in urine, median (subjects with T2DM [3]) | percent filtered glucose excreted in urine, min (subjects with T2DM [3]) | percent of filtered glucose excreted in the urine, mean (subjects with T2DM [3]) | fluid balance (median) (subjects with T2DM [4]) | mean lactate concentrations (subjects with T2DM [5]) | Abdominal pain upper (subjects with T2DM [6]) | Any Event (subjects with T2DM [6]) | Back pain (subjects with T2DM [6]) | Dizziness (subjects with T2DM [6]) | Dyspepsia (subjects with T2DM [6]) | Fatigue (subjects with T2DM [6]) | Headache (subjects with T2DM [6]) | Hypoglycemia (subjects with T2DM [6]) | Muscle spasms (subjects with T2DM [6]) | Nasopharyngitis (subjects with T2DM [6]) | further results |
| --- | --- | --- | --- | --- | --- | --- | --- | --- | --- | --- | --- | --- | --- | --- | --- | --- | --- | --- | --- | --- | --- |
| 3 h | 79.5 ng/mL | CCOC(=O)OC[C@H]1O[C@@H](Oc2nn(C(C)C)c(C)c2Cc2ccc(OC(C)C)cc2)[C@H](O)[C@@H](O)[C@@H]1O [Remogliflozin etabonate] | small decreases | 61.3% | 51.3 (7.02) percent | 51.8% | 38.4% | approximately 50% | -1145 mL | unchanged or decreased slightly | 1 (8%) n (%) | 2 (15%) n (%) | 0 n (%) | 0 n (%) | 0 n (%) | 0 n (%) | 0 n (%) | 0 n (%) | 1 (8%) n (%) | 0 n (%) | urinary glucose excretion (rats): increase urinary glucose excretion in a dose-dependent manner; urinary glucose excretion (mice): increase urinary glucose excretion in a dose-dependent manner; safety and tolerability [2]: safe and well tolerated; AUC(0-t) (clinical; human, in vivo, AUC(0–last)): 98.9 ng·h/mL; Neck pain (subjects with T2DM [6]): 0 n (%); Osteoarthritis (subjects with T2DM [6]): 0 n (%); Rash (subjects with T2DM [6]): 0 n (%); Toothache (subjects with T2DM [6]): 0 n (%); Wound (subjects with T2DM [6]): 0 n (%); inhibition of metabolic enzymes and transporters [7]: lack of inhibition; AUC(0-last) point estimate (GLSM Ratio) ([8]; MET + RE / RE): 1.00; Cmax point estimate (GLSM Ratio) ([8]; MET + RE / RE): 0.85; decrease in Cmax ([8]; MET + RE compared to remogliflozin etabonate alone): 15%; effect of metformin on AUC ([8]; MET + RE vs remogliflozin etabonate alone): no effects; 24-hour urine glucose, max (subjects with T2DM [9]; Day 2, N = 13): 796 mmol; 24-hour urine glucose, median (subjects with T2DM [9]; Day 2, N = 13): 497 mmol; 24-hour urine glucose, min (subjects with T2DM [9]; Day 2, N = 13): 384 mmol; antidiabetic efficacy (diabetic rodent models): exhibit antidiabetic efficacy |
| 3 h | 2690 ng/mL | Cc1c(Cc2ccc(OC(C)C)cc2)c(O[C@@H]2O[C@H](CO)[C@@H](O)[C@H](O)[C@H]2O)nn1C(C)C [Remogliflozin] | – | – | – | – | – | – | – | – | – | – | – | – | – | – | – | – | – | – | AUC(0-t) (clinical; [12]): 6810 ng·h/mL; inhibition of metabolic enzymes and transporters [7]: lack of inhibition |
| – | – | NS(=O)(=O)c1cc2c(cc1Cl)NCNS2(=O)=O [hydrochlorothiazide] | – | – | – | – | – | – | – | – | – | – | – | – | – | – | – | – | – | – | effect on the clearance of metformin [11]: no significant effect |

| SMILES | Tmax (clinical; human, in vivo) | Cmax (clinical; human, in vivo) | changes in fasting plasma glucose concentrations from baseline (subjects with T2DM [1]) | percent filtered glucose excreted in urine, max (subjects with T2DM [3]) | percent filtered glucose excreted in urine, mean (SD) (subjects with T2DM [3]) | percent filtered glucose excreted in urine, median (subjects with T2DM [3]) | percent filtered glucose excreted in urine, min (subjects with T2DM [3]) | percent of filtered glucose excreted in the urine, mean (subjects with T2DM [3]) | fluid balance (median) (subjects with T2DM [4]) | mean lactate concentrations (subjects with T2DM [5]) | Abdominal pain upper (subjects with T2DM [6]) | Any Event (subjects with T2DM [6]) | Back pain (subjects with T2DM [6]) | Dizziness (subjects with T2DM [6]) | Dyspepsia (subjects with T2DM [6]) | Fatigue (subjects with T2DM [6]) | Headache (subjects with T2DM [6]) | Hypoglycemia (subjects with T2DM [6]) | Muscle spasms (subjects with T2DM [6]) | Nasopharyngitis (subjects with T2DM [6]) | further results |
| --- | --- | --- | --- | --- | --- | --- | --- | --- | --- | --- | --- | --- | --- | --- | --- | --- | --- | --- | --- | --- | --- |
| CN(C)C(=N)N=C(N)N [Metformin, reference compound] | – | 1020 ng/mL | remained relatively stable | 4.71% | 1.41 (1.52) percent | 0.95% | 0.10% | 1.4% | -775 mL | increase or increasing trend | 0 n (%) | 5 (38%) n (%) | 2 (15%) n (%) | 1 (8%) n (%) | 0 n (%) | 1 (8%) n (%) | 2 (15%) n (%) | 1 (8%) n (%) | 1 (8%) n (%) | 0 n (%) | renal excretion [10]: 3 times the glomerular filtration rate; AUC(0-t) (clinical; [12]): 7140 ng·h/mL; Tmax (clinical; plasma, Day 3, MET BID, median (range)): 4.0 (1.0 - 6.0) h; Neck pain (subjects with T2DM [6]): 1 (8%) n (%); Osteoarthritis (subjects with T2DM [6]): 0 n (%); Rash (subjects with T2DM [6]): 0 n (%); Toothache (subjects with T2DM [6]): 1 (8%) n (%); Wound (subjects with T2DM [6]): 0 n (%); effect of remogliflozin etabonate on PK parameters ([8]; metformin PK with MET + RE vs MET): no effect; effect on urine glucose output (subjects with T2DM [9]; Day 2): relatively no effect; 24-hour urine glucose, max (subjects with T2DM [9]; Day 2, N = 13): 43.9 mmol; 24-hour urine glucose, mean (SD) (subjects with T2DM [9]; Day 2, N = 13): 13.6 (13.4) mmol; 24-hour urine glucose, median (subjects with T2DM [9]; Day 2, N = 13): 10.9 mmol; 24-hour urine glucose, min (subjects with T2DM [9]; Day 2, N = 13): 1.1 mmol |
